Article PMC10781691, “Vertical pathway inhibition of receptor tyrosine kinases and BAD with synergistic efficacy in triple negative breast cancer” (NPJ Precision Oncology, 2024)
Like-named read-outs stand apart in the source and are kept apart here.

What was measured:
MDA-MB-231 cells [1] = experiment: Annexin V-PI apoptosis flow cytometry; settings: MDA-MB-231, 5 μM
Source text: Representative flow cytometry plots of Annexin-V and propidium iodide (PI) stained apoptotic
or NPB using flow cytometry analysis. Annexin V-FITC staining is indicated on the x axis, and PI staining is indicated on the y axis. The lower left quadrants represent live cells, the lower right quadrants represent early apoptotic cells, the upper left quadrants represent necrotic cells, and the upper right quadrants display late apoptotic cells. Acquisition of Annexin V and PI data are presented as a percentage (%) in each quadrant. Early apoptotic cells are referred to as Annexin- V positive and late apoptotic cells are referred to as Annexin-V and PI double positive.

4T1-luciferase cells = tested on: 4T1-luciferase cells
Method: Since metastasis is the primary contributor to mortality and poor prognosis for TNBC patients, the therapeutic potential of NCK, TKIs or combined NCK-TKI treatment on TNBC metastasis was further evaluated with an experimental lung metastasis model.
In vivo bioluminescent imaging was performed to determine the incidence and metastatic burden of luciferase-labeled 4T1 cells. Mice were injected i.p. with 10 mg/ml of D-luciferin (Gold Biotechnology, MO, USA) and imaged using a PerkinElmer IVIS Spectrum system. PDX were generated as previously described by transplanting fresh fragments orthotopically into 8-week-old female nonobese diabetic (NOD)/severe combined immunodeficient (SCID) mice (Beijing Vital River Laboratory Animal Technology Co., Beijing, China) (P1, passage 1)[40]. The P1 xenografts were then fragmented, digested into single-cell suspension and implanted into mammary fat pad (100 μL PBS containing growth factor reduced 50% Matrigel) of NOD/SCID mice. Once orthotopic xenografts reached an approximate size of 100 mm^3, the mice were randomly divided into three groups (n = 8) for single drug studies and six groups (n = 6) for combination studies and Kaplan-Meier (KM) analyses. […] Animal body weight and xenograft size were measured daily using an electronic balance and a digital caliper, respectively. Xenograft volume (mm^3) was calculated by using the formula: 0.52 × length × [width]^2. Complete response (CR) was achieved if the average xenograft volume for the treatment group was unable to be determined for two or more consecutive measurements. Partial response (PR) was achieved if the average xenograft volume reduced to <50 mm^3 for two or more consecutive measurements. After 3-week drug treatment, all mice were sacrificed by CO2 inhalation. Tumor and vital organs were weighed and isolated for further analysis. IHC analysis of xenograft histology sections and quantitative polymerase chain reaction (qPCR) were performed as previously described. […] For PDX, xenograft growth was monitored daily by measurement of the xenograft volume until mice humane endpoint ( ~ 1000 mm^3).
luciferase cell generated metastasis model. Scale bar, 20 µm. (C) Animal weight of each
treatment group was indicated. (D) Changes in relative lung, liver, spleen, heart and kidney
(CRI) or combinations during the study at day 9.

[2] = tested on: BAD phosphorylation at Ser75 and Ser118; experiment: Western blot of BAD phosphorylation at Ser75 and Ser118 in TNBC cells; assay type: cell-based, human; settings: MDA-MB-231 and BT549 cells
Method: To compare the binding affinity of NCK and NPB towards BAD, we performed surface plasmon resonance (SPR) measurement by immobilizing BAD protein on a sensor chip with NCK or NPB as analyte. Representative reference-subtracted overlaid sensorgrams and the kinetic parameters are specified in Fig. 2d and Supplementary Fig. 6A. […] Additionally, the pharmacological inhibition of BAD phosphorylation by NCK or NPB in TNBC cells was evaluated. […] Furthermore, the comparative potencies of NPB and NCK were evaluated in eight TNBC cell lines using total cell number assay in 2D culture and cell viability in 3D culture (Supplementary Fig. 6C, D).

MDA-MB-231 xenografts = experiment: Orthotopic xenograft, single drug study; assay type: in vivo, BALB/c-nude mice
Method: Next, the in vivo efficacy of NCK was examined in mice injected orthotopically with MDA-MB-231 cells to form xenografts. When the xenograft volume reached 100 mm^3, mice were randomly grouped and injected i.p. with vehicle, NCK (5 mg/kg q.d.) or NCK (20 mg/kg q.d.) for 21 days.

[3] = Pharmacokinetics after IV and oral administration; assay type: in vivo, Sprague-Dawley (SD) rats; design: AUClast/D: unit not given here; settings: SD rats; for MRT inf: read-out: MRTInf_obs
Method: The pharmacokinetics of NCK were determined via intravenous (IV) and oral administration in Sprague-Dawley (SD) rats (Supplementary Fig. 7).
Supplementary Figure 7: (A) Plasma concentration of NCK after intravenous (IV, 1 mg/kg) (red) or oral (PO, 10 mg/kg) (blue) administration in SD rats. Results represent the mean ± SD of three animals. (B) Pharmacokinetic parameters of NCK in plasma after IV injection (1 mg/kg) or oral administration (10 mg/kg). AUCinf: Area Under the Plasma Concentration-Time Curve from t=0 to infinity; AUClast: Area Under the Plasma Concentration-Time Curve from t=0 to last measurable positive concentration; AUC_%Extrap_obs: Percent Extrapolated AUC from tlast to infinity; C0: Initial concentration in plasma; Cmax: Peak concentration in plasma; Cl_obs:
Plasma systemic clearance; F: Absolute oral bioavailability; MRTInf_obs: Mean residence time from t=0 to infinity ;T1/2: Elimination half- life; Tmax: Time of peak concentration in plasma; Vss_obs: Volume of Distribution at Steady- state

BT549 cells = experiment: Cell cycle analysis by PI flow cytometry; assay type: cell-based, human; settings: BT549, 5 μM
MDA-MB-231 cells [4] = experiment: Cell cycle analysis by PI flow cytometry; assay type: cell-based, human; settings: MDA-MB-231, 5 μM
Source text: Fig. 3 NCK enhances apoptosis and impedes cell-cycle progression in TNBC cells. a Hallmark analysis of the differential expressed genes (DEGs). […] NES, normalized enrichment score. FDR, false discovery rate.
Supplementary Figure 9: (A) Representative flow cytometry plots using PI staining for DNA
or NPB using flow cytometry analysis.

CSF-1R = tested on: CSF-1R; design: method as in SelleckChem; settings: ref SelleckChem; cited from earlier work
c-Raf = tested on: c-Raf; design: method as in SelleckChem; settings: ref SelleckChem; cited from earlier work
LCK = tested on: LCK; design: method as in SelleckChem; settings: ref SelleckChem; cited from earlier work
[5] = BALB/c mice, day 9, NCK 20 mg/kg, OSI 50 mg/kg, CRI 50 mg/kg
[6] = NCK 5 and 20 mg/kg q.d. i.p. 21 days
[7] = Sprague-Dawley, rat, plasma, IV 1 mg/kg
[8] = Sprague-Dawley, rat, plasma, PO 10 mg/kg

SMILES: Oc1ccccc1C(c1cccnc1)N1CCN(c2cccc(Cl)c2Cl)CC1 (stereo not drawn) [NCK, 2-((4-(2,3-dichlorophenyl)piperazin-1-yl)(pyridin-3-yl)methyl) phenol]
- induction of apoptosis (early and late) (MDA-MB-231 cells [1]): more potent effect than NPB in inducing apoptosis
- lung metastases (bioluminescent signals) vs control (4T1-luciferase cells; 4T1-luciferase metastasis model): significantly abrogated lung metastases
- Relative Heart Weight (4T1-luciferase cells; [5]): 0.51±0.07%
- Relative Kidney Weight (4T1-luciferase cells; [5]): 1.40±0.07%
- Relative Liver Weight (4T1-luciferase cells; [5]): 4.55±0.21%
- Relative Lung Weight (4T1-luciferase cells; [5]): 1.70±0.49%
- Relative Spleen Weight (4T1-luciferase cells; [5]): 1.54±0.54%
- levels of pBADSer75/BAD and pBADSer118/BAD [2]: did not alter
- xenograft volume and weight vs vehicle (MDA-MB-231 xenografts; NCK 5 mg/kg q.d. i.p. 21 days): significantly reduced xenograft volume
- xenograft volume and weight vs vehicle (MDA-MB-231 xenografts; NCK 20 mg/kg q.d. i.p. 21 days): significantly reduced xenograft volume
- MKI67 positivity in xenografts (MDA-MB-231 xenografts; [6]): decreased MKI67 positivity
- TUNEL scores in xenografts (MDA-MB-231 xenografts; [6]): increased TUNEL scores
- body weight vs vehicle (MDA-MB-231 xenografts; [6]): no significant change in body weight
- pBADSer99 in resected xenografts (IHC) vs vehicle (MDA-MB-231 xenografts; [6]): significantly reduced pBADSer99
- AUC_%Extrap_obs ([3]; IV 1 mg/kg): 2.51%
- AUClast/D ([3]; IV 1 mg/kg): 280
- Vss_obs ([3]; IV 1 mg/kg): 5.93 L/kg
- AUC_%Extrap_obs ([3]; PO 10 mg/kg): 2.14%
- AUClast/D ([3]; PO 10 mg/kg): 105
- AUC(0-inf) [3, 7]: 288 ng·h/mL
- AUC(0-t) [3, 7]: 280 ng·h/mL
- C0 [3, 7]: 554 ng/mL
- half-life [3, 7]: 3.35 h
- MRT inf [3, 7]: 1.72 h
- bioavailability ([3]; Sprague-Dawley, rat, plasma, PO 10 mg/kg vs IV 1 mg/kg, read-out: F (absolute oral bioavailability)): 37.2%
- AUC(0-inf) [3, 8]: 1070 ng·h/mL
- AUC(0-t) [3, 8]: 1050 ng·h/mL
- Cmax [3, 8]: 346 ng/mL
- Tmax [3, 8]: 0.33 h
- half-life [3, 8]: 2.68 h
- MRT inf [3, 8]: 4 h
- clearance ([3]; Sprague-Dawley, rat, IV 1 mg/kg, plasma, read-out: Cl_obs (clearance)): 58.3 mL/min/kg
- decrease in S-phase (BT549 cells): 27.12%
- increase in G1-phase (BT549 cells): 30.43%
- decrease in S-phase (MDA-MB-231 cells [4]): 15.68%
- increase in G1-phase (MDA-MB-231 cells [4]): 17.75%

SMILES: O=C(Nc1ccc(OC(F)(F)F)cc1)c1sccc1NCc1ccnc2ccccc12 [OSI-930]
- IC50 (CSF-1R): 15 nM
- IC50 (c-Raf): 41 nM
- IC50 (LCK): 22 nM
